In patent US8541588B2, “Sulfonamide derivatives” (Pfizer Limited, priority 2009, dated 2013) one finds IC50 data, which are given here for 13 compounds.

The experiment concerns the target T1, Nav1.7 (or SCN9A) channel; HEK cells stably transfected with hSCN9A (Homo sapiens, UniProt Q15858).
T1 construct: expressed in transfected cells
Briefly: Nav1.7 block, PatchXpress 7000 automated whole-cell voltage clamp, estimated IC50 (EIC50). The settings on record: estimated IC50; hSCN9A HEK cells, PatchXpress platform; Examples 283-814. It counts as cell-based.

T1 sequence (Q15858 whole entry): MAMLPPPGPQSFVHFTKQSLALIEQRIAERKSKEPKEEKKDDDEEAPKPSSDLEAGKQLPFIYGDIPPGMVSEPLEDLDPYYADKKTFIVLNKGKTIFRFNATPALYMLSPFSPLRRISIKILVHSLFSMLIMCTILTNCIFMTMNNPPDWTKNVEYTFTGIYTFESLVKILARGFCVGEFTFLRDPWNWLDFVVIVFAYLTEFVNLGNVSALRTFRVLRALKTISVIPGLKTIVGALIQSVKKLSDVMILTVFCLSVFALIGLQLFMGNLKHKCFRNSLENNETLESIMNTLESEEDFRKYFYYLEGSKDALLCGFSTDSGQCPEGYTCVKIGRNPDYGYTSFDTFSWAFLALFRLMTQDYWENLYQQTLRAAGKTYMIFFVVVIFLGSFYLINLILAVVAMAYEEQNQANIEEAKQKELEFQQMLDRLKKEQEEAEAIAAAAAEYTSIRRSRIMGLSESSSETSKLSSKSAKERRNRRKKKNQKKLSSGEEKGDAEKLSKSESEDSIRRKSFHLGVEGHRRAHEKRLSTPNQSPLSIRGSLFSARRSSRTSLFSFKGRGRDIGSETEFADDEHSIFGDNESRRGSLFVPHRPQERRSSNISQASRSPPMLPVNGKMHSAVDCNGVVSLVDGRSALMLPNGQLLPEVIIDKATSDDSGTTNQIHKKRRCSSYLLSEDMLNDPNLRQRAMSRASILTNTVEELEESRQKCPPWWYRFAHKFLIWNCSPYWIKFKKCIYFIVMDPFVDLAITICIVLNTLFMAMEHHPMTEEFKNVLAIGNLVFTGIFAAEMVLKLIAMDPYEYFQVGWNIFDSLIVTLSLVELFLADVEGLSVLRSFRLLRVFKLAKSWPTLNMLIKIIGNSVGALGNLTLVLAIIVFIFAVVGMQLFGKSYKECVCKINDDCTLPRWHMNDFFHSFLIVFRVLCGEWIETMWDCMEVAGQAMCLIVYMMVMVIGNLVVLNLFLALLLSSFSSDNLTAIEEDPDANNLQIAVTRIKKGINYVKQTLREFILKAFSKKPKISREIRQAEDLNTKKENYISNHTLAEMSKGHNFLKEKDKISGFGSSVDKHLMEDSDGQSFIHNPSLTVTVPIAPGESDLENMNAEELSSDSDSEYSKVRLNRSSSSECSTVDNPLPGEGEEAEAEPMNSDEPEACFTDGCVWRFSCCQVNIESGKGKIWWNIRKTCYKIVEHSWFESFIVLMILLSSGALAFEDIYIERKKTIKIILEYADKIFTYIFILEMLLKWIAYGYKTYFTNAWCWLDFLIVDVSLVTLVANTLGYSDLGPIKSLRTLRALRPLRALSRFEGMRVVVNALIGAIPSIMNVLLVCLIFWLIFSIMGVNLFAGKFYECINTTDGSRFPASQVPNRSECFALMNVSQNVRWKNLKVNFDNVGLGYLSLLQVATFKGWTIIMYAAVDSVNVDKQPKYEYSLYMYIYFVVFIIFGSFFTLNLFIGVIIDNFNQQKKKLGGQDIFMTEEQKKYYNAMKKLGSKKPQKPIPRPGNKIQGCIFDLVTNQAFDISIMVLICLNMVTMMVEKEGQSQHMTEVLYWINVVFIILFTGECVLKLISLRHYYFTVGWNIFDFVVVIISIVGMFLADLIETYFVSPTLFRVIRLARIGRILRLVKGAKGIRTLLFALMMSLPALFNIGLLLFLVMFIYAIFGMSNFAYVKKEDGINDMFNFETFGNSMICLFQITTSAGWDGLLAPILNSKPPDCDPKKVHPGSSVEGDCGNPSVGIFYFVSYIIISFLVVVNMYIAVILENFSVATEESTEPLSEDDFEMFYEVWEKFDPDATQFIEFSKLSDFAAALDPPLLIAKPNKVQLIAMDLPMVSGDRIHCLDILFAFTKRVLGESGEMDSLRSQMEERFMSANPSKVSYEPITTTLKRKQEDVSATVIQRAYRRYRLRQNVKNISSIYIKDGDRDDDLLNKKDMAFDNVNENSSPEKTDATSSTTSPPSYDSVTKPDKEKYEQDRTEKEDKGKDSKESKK

For the compound `CC(C)(C)n1nc(C(F)(F)F)cc1-c1ccc(Oc2ccc(S(=O)(=O)Nc3nccs3)c(F)c2)cc1` [Example 303, 4-{4-[1-tert-Butyl-3-(trifluoromethyl)-1H-pyrazol-5-yl]phenoxy}-2-fluoro-N-1,3-thiazol-2-ylbenzenesulfonamide], the 50% inhibitory concentration (IC50) – broadly, the concentration needed to halve the response being measured – is 430 nM.

Take `Cn1nccc1-c1cc(Cl)ccc1Oc1cc(F)c(S(=O)(=O)Nc2nccs2)cc1Cl` [Example 304, 5-chloro-4-[4-chloro-2-(1-methyl-1H-pyrazol-5-yl)phenoxy]-2-fluoro-N-1,3-thiazol-2-ylbenzenesulfonamide]: the IC50 was 25 nM.

Take `CCn1nc(C(F)(F)F)cc1-c1ccc(Oc2cc(F)c(S(=O)(=O)Nc3nccs3)cc2Cl)cc1` [Example 305, 5-chloro-4-{4-[1-ethyl-3-(trifluoromethyl)-1H-pyrazol-5-yl]phenoxy}-2-fluoro-N-1,3-thiazol-2-ylbenzenesulfonamide]: the IC50 is 97 nM.

On to `Cn1cnnc1-c1cc(Cl)ccc1Oc1ccc(S(=O)(=O)Nc2nccs2)cc1F` [Example 306, 4-[4-chloro-2-(4-methyl-4H-1,2,4-triazol-3-yl)phenoxy]-3-fluoro-N-1,3-thiazol-2-ylbenzenesulfonamide], for which the IC50 was over 1000 nM.

Turning to `Cn1ncc(F)c1-c1cc(Cl)ccc1Oc1ccc(S(=O)(=O)Nc2nccs2)cc1F` [Example 307, 4-[4-Chloro-2-(4-fluoro-1-methyl-1H-pyrazol-5-yl)phenoxy]-3-fluoro-N-1,3-thiazol-2-ylbenzenesulfonamide], the IC50 is 810 nM.

Turning to `O=S(=O)(Nc1nccs1)c1ccc(Oc2ccc(Cl)cc2-c2ccn[nH]2)c(F)c1` [Example 308, 4-[4-Chloro-2-(1H-pyrazol-5-yl)phenoxy]-3-fluoro-N-1,3-thiazol-2-ylbenzenesulfonamide], the IC50 is 980 nM.

On to `Cn1nccc1-c1cc(C2CC2)ccc1Oc1ccc(S(=O)(=O)Nc2nccs2)cc1F` [Example 309, 4-[4-Cyclopropyl-2-(1-methyl-1H-pyrazol-5-yl)phenoxy]-3-fluoro-N-1,3-thiazol-2-ylbenzenesulfonamide], for which the IC50 is 25 nM.

Turning to `CC(C)Oc1cc(-c2cc(F)ccc2Oc2ccc(S(=O)(=O)Nc3nccs3)cc2C#N)n(C)n1` [Example 310, 3-cyano-4-[4-fluoro-2-(3-isopropoxy-1-methyl-1H-pyrazol-5-yl)phenoxy]-N-1,3-thiazol-2-ylbenzenesulfonamide], the IC50 was over 1000 nM.

In the case of `CCn1nc(C(F)(F)F)cc1-c1ccc(Oc2ccc(S(=O)(=O)Nc3ncc(F)cc3F)cc2C#N)cc1` [Example 311, 3-cyano-N-(3,5-difluoropyridin-2-yl)-4-{4-[1-ethyl-3-(trifluoromethyl)-1H-pyrazol-5-yl]phenoxy}benzenesulfonamide], the IC50 was 4900 nM.

Consider `Cn1nccc1-c1cc(I)ccc1Oc1ccc(S(=O)(=O)Nc2nccs2)cc1C#N` [Example 312, 3-cyano-4-[4-iodo-2-(1-methyl-1H-pyrazol-5-yl)phenoxy]-N-1,3-thiazol-2-ylbenzenesulfonamide], for which the IC50 was 17 nM.

As for `N#Cc1cc(S(=O)(=O)Nc2ccc(F)cn2)ccc1Oc1ccc(Cl)cc1-c1cn[nH]c1` [Example 314, 4-[4-chloro-2-(1H-pyrazol-4-yl)phenoxy]-3-cyano-N-(5-fluoropyridin-2-yl)benzenesulfonamide], the IC50 was 730 nM.

Regarding `N#Cc1cc(S(=O)(=O)Nc2ccc(F)cn2)ccc1Oc1ccc(C(F)(F)F)cc1-c1cn[nH]c1` [Example 315, 3-cyano-N-(5-fluoropyridin-2-yl)-4-[2-(1H-pyrazol-4-yl)-4-(trifluoromethyl)phenoxy]benzenesulfonamide], the IC50 is 1200 nM.

Take `CCn1cc(C(F)(F)F)nc1-c1ccc(Oc2ccc(S(=O)(=O)Nc3nccs3)cc2C#N)cc1` [Example 316, 3-cyano-4-{4-[1-ethyl-4-(trifluoromethyl)-1H-imidazol-2-yl]phenoxy}-N-1,3-thiazol-2-ylbenzenesulfonamide]: the IC50 is 740 nM.
